Read-outs that look alike come from different tables or passages of the source.
How the values were obtained:
Assay type in all cases: in vivo
[1] = tested on: blackgrass (Alopecurus myosuroides); assay: Test C pre-/postemergence greenhouse test, plant response rating 0-100; details: Alopecurus myosuroides; for pest or weed control at 62 g/ha: 62 g ai/ha; for pest or weed control at 125 g/ha: 125 g ai/ha; for pest or weed control at 250 g/ha: 250 g ai/ha; for pest or weed control at 500 g/ha: 500 g ai/ha
Summary of the method: (§1)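 Pre-emergence soil and post-emergence foliar sprays were applied simultaneously to seeded loam–sand pots and to 1–4-leaf plants in peat medium; greenhouse holding lasted 13–15 days, then plants were scored visually from 0 (no effect) to 100 (complete control).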

corn (Zea mays) = assay: as above; details: Zea mays; for Corn plant response rating (crop injury, 0 = no effect, 100 = complete kill) at 250 g/ha: 250 g ai/ha; for Corn plant response rating (crop injury, 0 = no effect, 100 = complete kill) at 500 g/ha: 500 g ai/ha
Summary of the method: as §1

[2] = tested on: giant foxtail (Setaria faberii); assay: as above; details: Setaria faberi; for pest or weed control at 62 g/ha: 62 g ai/ha; for pest or weed control at 125 g/ha: 125 g ai/ha; for pest or weed control at 250 g/ha: 250 g ai/ha; for pest or weed control at 500 g/ha: 500 g ai/ha
Summary of the method: as §1

[3] = tested on: johnsongrass (Sorghum halepense); assay: as above; details: Sorghum halepense; for pest or weed control at 62 g/ha: 62 g ai/ha; for pest or weed control at 125 g/ha: 125 g ai/ha; for pest or weed control at 250 g/ha: 250 g ai/ha; for pest or weed control at 500 g/ha: 500 g ai/ha
Summary of the method: as §1

[4] = tested on: lambsquarters (Chenopodium album); assay: as above; details: Chenopodium album; for pest or weed control at 62 g/ha: 62 g ai/ha; for pest or weed control at 125 g/ha: 125 g ai/ha; for pest or weed control at 250 g/ha: 250 g ai/ha; for pest or weed control at 500 g/ha: 500 g ai/ha
Summary of the method: as §1

[5] = tested on: large (Lg) crabgrass (Digitaria sanguinalis); assay: as above; details: Digitaria sanguinalis; for pest or weed control at 62 g/ha: 62 g ai/ha; for pest or weed control at 125 g/ha: 125 g ai/ha; for pest or weed control at 250 g/ha: 250 g ai/ha; for pest or weed control at 500 g/ha: 500 g ai/ha
Summary of the method: as §1

[6] = tested on: oilseed rape (Brassica napus); assay: as above
Summary of the method: as §1

[7] = tested on: pigweed (Amaranthus retroflexus); assay: as above; details: Amaranthus retroflexus; for pest or weed control at 62 g/ha: 62 g ai/ha; for pest or weed control at 125 g/ha: 125 g ai/ha; for pest or weed control at 250 g/ha: 250 g ai/ha; for pest or weed control at 500 g/ha: 500 g ai/ha
Summary of the method: as §1

soybean (Glycine max) = assay: as above; details: Glycine max; for plant injury at 62 g/ha: 62 g ai/ha; for plant injury at 125 g/ha: 125 g ai/ha; for plant injury at 250 g/ha: 250 g ai/ha; for plant injury at 500 g/ha: 500 g ai/ha
Summary of the method: as §1

[8] = tested on: winter wheat (Triticum aestivum); assay: as above; details: Triticum aestivum; for plant injury at 62 g/ha: 62 g ai/ha; for plant injury at 125 g/ha: 125 g ai/ha; for plant injury at 250 g/ha: 250 g ai/ha; for plant injury at 500 g/ha: 500 g ai/ha
Summary of the method: as §1

[9] = tested on: yellow nutsedge (Cyperus esculentus); assay: as above; details: Cyperus; for pest or weed control at 62 g/ha: 62 g ai/ha; for pest or weed control at 125 g/ha: 125 g ai/ha; for pest or weed control at 250 g/ha: 250 g ai/ha; for pest or weed control at 500 g/ha: 500 g ai/ha
Summary of the method: as §1

[10] = tested on: chickweed (common chickweed, Stellaria media); assay: Test C postemergence greenhouse test, plant response rating 0-100; details: Stellaria media, post-emergence
Summary of the method: (§2)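 Plants rated visually 0 (no effect) to 100 (complete control) against untreated controls after 13 to 15 days in the greenhouse, dash indicating no result. Treatment was a postemergence application of formulated chemicals at the 1- to 4-leaf stage (2 to 18 cm), in pots of peat-vermiculite medium.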

kochia (Kochia scoparia) = assay: as above; details: Bassia scoparia, post-emergence
Summary of the method: as §2

wild oat (Avena fatua) = assay: as above; details: Avena fatua, post-emergence
Summary of the method: as §2

[11] = post-emergence, Postemergence, scale 0 to 100
[12] = pre-emergence, Preemergence, read-out: Plant response rating, Blackgrass
[13] = post-emergence, Postemergence, read-out: Plant response rating (0 to 100), Foxtail, Giant
[14] = pre-emergence, Preemergence, read-out: Plant response rating, Foxtail, Giant
[15] = post-emergence, Postemergence, read-out: Plant response rating (0 to 100), Johnsongrass
[16] = pre-emergence, Preemergence, read-out: Plant response rating, Johnsongrass
[17] = post-emergence, Postemergence, read-out: Plant response rating (0 to 100), Lambsquarters
[18] = pre-emergence, Preemergence, read-out: Plant response rating, Lambsquarters
[19] = post-emergence, Postemergence, read-out: Plant response rating (0 to 100), Crabgrass, Large
[20] = pre-emergence, Preemergence, read-out: Plant response rating, Crabgrass, Large
[21] = post-emergence, Postemergence, read-out: Plant response rating (0 to 100), Pigweed
[22] = pre-emergence, Preemergence, read-out: Plant response rating, Pigweed
[23] = post-emergence, Postemergence, read-out: Plant response rating (0 to 100), Soybean
[24] = pre-emergence, Preemergence, read-out: Plant response rating, Soybean
[25] = post-emergence, Postemergence, read-out: Plant response rating (0 to 100), Wheat
[26] = pre-emergence, Preemergence, read-out: Plant response rating, Wheat
[27] = post-emergence, Postemergence, read-out: Plant response rating (0 to 100), Nutsedge, Yellow
[28] = pre-emergence, Preemergence, read-out: Plant response rating, Nutsedge, Yellow

## CCOC(OCC)(c1ccccc1)c1c[nH]nc1-c1cc(Cl)cc(Cl)c1 [Compound 14, 3-(3,5-dichlorophenyl)-4-(diethoxyphenylmethyl)-1H-pyrazole]
[1]; post-emergence, Postemergence, read-out: Plant response rating (0 to 100), Blackgrass
  pest or weed control at 62 g/ha: 0%
[1]; post-emergence, Postemergence, scale 0 to 100, read-out: Plant response rating, Blackgrass
  pest or weed control at 125 g/ha: 0%
[1]; [11]
  pest or weed control at 250 g/ha: 0%
  pest or weed control at 500 g/ha: 0%
[1]; [12]
  pest or weed control at 62 g/ha: 50%
  pest or weed control at 125 g/ha: 20%
[1]; pre-emergence, Preemergence
  pest or weed control at 250 g/ha: 0%
  pest or weed control at 500 g/ha: 30%
Corn (Zea mays); post-emergence, Postemergence, 62 g ai/ha
  plant injury at 62 g/ha: 0%
Corn (Zea mays); post-emergence, Postemergence, 125 g ai/ha
  plant injury at 125 g/ha: 0%
Corn (Zea mays); [11]
  Corn plant response rating (crop injury, 0 = no effect, 100 = complete kill) at 250 g/ha: 5%
  Corn plant response rating (crop injury, 0 = no effect, 100 = complete kill) at 500 g/ha: 5%
Corn (Zea mays); pre-emergence, Preemergence, 62 g ai/ha
  Corn plant response rating (crop injury, 0 = no effect, 100 = complete kill) at 62 g/ha: 0%
Corn (Zea mays); pre-emergence, Preemergence, 125 g ai/ha
  Corn plant response rating (crop injury, 0 = no effect, 100 = complete kill) at 125 g/ha: 0%
Corn (Zea mays); pre-emergence, Preemergence
  Corn plant response rating (crop injury, 0 = no effect, 100 = complete kill) at 250 g/ha: 0%
  Corn plant response rating (crop injury, 0 = no effect, 100 = complete kill) at 500 g/ha: 0%
[2]; [13]
  pest or weed control at 62 g/ha: 0%
  pest or weed control at 125 g/ha: 0%
[2]; [11]
  pest or weed control at 250 g/ha: 0%
  pest or weed control at 500 g/ha: 0%
[2]; [14]
  pest or weed control at 62 g/ha: 0%
  pest or weed control at 125 g/ha: 0%
[2]; pre-emergence, Preemergence
  pest or weed control at 250 g/ha: 0%
  pest or weed control at 500 g/ha: 0%
[3]; [15]
  pest or weed control at 62 g/ha: 0%
  pest or weed control at 125 g/ha: 0%
[3]; [11]
  pest or weed control at 250 g/ha: 0%
  pest or weed control at 500 g/ha: 0%
[3]; [16]
  pest or weed control at 62 g/ha: 0%
  pest or weed control at 125 g/ha: 0%
[3]; pre-emergence, Preemergence
  pest or weed control at 250 g/ha: 0%
  pest or weed control at 500 g/ha: 0%
[4]; [17]
  pest or weed control at 62 g/ha: 70%
  pest or weed control at 125 g/ha: 95%
[4]; [11]
  pest or weed control at 250 g/ha: 100%
  pest or weed control at 500 g/ha: 100%
[4]; [18]
  pest or weed control at 62 g/ha: 100%
  pest or weed control at 125 g/ha: 100%
[4]; pre-emergence, Preemergence
  pest or weed control at 250 g/ha: 100%
  pest or weed control at 500 g/ha: 100%
[5]; [19]
  pest or weed control at 62 g/ha: 0%
  pest or weed control at 125 g/ha: 0%
[5]; [11]
  pest or weed control at 250 g/ha: 0%
  pest or weed control at 500 g/ha: 0%
[5]; [20]
  pest or weed control at 62 g/ha: 0%
  pest or weed control at 125 g/ha: 0%
[5]; pre-emergence, Preemergence
  pest or weed control at 250 g/ha: 0%
  pest or weed control at 500 g/ha: 0%
[6]; Postemergence, 62 g ai/ha
  Plant response rating (0 to 100), Oilseed Rape: 80
[6]; Postemergence, 125 g ai/ha
  Plant response rating (0 to 100), Oilseed Rape: 70
[6]; Postemergence, 250 g ai/ha, scale 0 to 100
  Plant response rating, Oilseed Rape: 95
[6]; Postemergence, 500 g ai/ha, scale 0 to 100
  Plant response rating, Oilseed Rape: 90
[6]; Preemergence, 62 g ai/ha
  Plant response rating, Oilseed Rape: 50
[6]; Preemergence, 125 g ai/ha
  Plant response rating, Oilseed Rape: 90
[6]; Preemergence, 250 g ai/ha
  Plant response rating, Oilseed Rape: 85
[6]; Preemergence, 500 g ai/ha
  Plant response rating, Oilseed Rape: 85
[7]; [21]
  pest or weed control at 62 g/ha: 85%
  pest or weed control at 125 g/ha: 98%
[7]; [11]
  pest or weed control at 250 g/ha: 100%
  pest or weed control at 500 g/ha: 100%
[7]; [22]
  pest or weed control at 62 g/ha: 98%
  pest or weed control at 125 g/ha: 100%
[7]; pre-emergence, Preemergence
  pest or weed control at 250 g/ha: 100%
  pest or weed control at 500 g/ha: 100%
Soybean (Glycine max); [23]
  plant injury at 62 g/ha: 0%
  plant injury at 125 g/ha: 0%
Soybean (Glycine max); [11]
  plant injury at 250 g/ha: 0%
  plant injury at 500 g/ha: 0%
Soybean (Glycine max); [24]
  plant injury at 62 g/ha: 0%
  plant injury at 125 g/ha: 35%
Soybean (Glycine max); pre-emergence, Preemergence
  plant injury at 250 g/ha: 40%
  plant injury at 500 g/ha: 10%
[8]; [25]
  plant injury at 62 g/ha: 0%
  plant injury at 125 g/ha: 0%
[8]; [11]
  plant injury at 250 g/ha: 0%
  plant injury at 500 g/ha: 5%
[8]; [26]
  plant injury at 62 g/ha: 0%
  plant injury at 125 g/ha: 0%
[8]; pre-emergence, Preemergence
  plant injury at 250 g/ha: 0%
  plant injury at 500 g/ha: 0%
[9]; [27]
  pest or weed control at 62 g/ha: 0%
  pest or weed control at 125 g/ha: 0%
[9]; [11]
  pest or weed control at 250 g/ha: 0%
  pest or weed control at 500 g/ha: 0%
[9]; [28]
  pest or weed control at 62 g/ha: 0%
  pest or weed control at 125 g/ha: 0%
[9]; pre-emergence, Preemergence
  pest or weed control at 250 g/ha: 0%
  pest or weed control at 500 g/ha: 0%
[10]; 62 g ai/ha
  pest or weed control at 62 g/ha: 90%
[10]; 125 g ai/ha
  pest or weed control at 125 g/ha: 100%
[10]; 250 g ai/ha, scale 0 to 100
  pest or weed control at 250 g/ha: 100%
[10]; 500 g ai/ha, scale 0 to 100
  pest or weed control at 500 g/ha: 95%
Kochia (Kochia scoparia); 62 g ai/ha
  pest or weed control at 62 g/ha: 85%
Kochia (Kochia scoparia); 125 g ai/ha
  pest or weed control at 125 g/ha: 90%
Kochia (Kochia scoparia); 250 g ai/ha, scale 0 to 100
  pest or weed control at 250 g/ha: 90%
Kochia (Kochia scoparia); 500 g ai/ha, scale 0 to 100
  pest or weed control at 500 g/ha: 90%
Wild oat (Avena fatua); 62 g ai/ha
  pest or weed control at 62 g/ha: 0%
Wild oat (Avena fatua); 125 g ai/ha
  pest or weed control at 125 g/ha: 0%
Wild oat (Avena fatua); 250 g ai/ha, scale 0 to 100
  pest or weed control at 250 g/ha: 0%
Wild oat (Avena fatua); 500 g ai/ha, scale 0 to 100
  pest or weed control at 500 g/ha: 5%

— patent US10167262B2, “Herbicidal substituted 3-arylpyrazoles” (FMC CORPORATION, priority 2014, dated 2019)
